Where two headings read alike, the source gives them in different places.
Target: T1, NTCP (Homo sapiens, UniProt Q14973)
T1 sequence (Q14973 1-349): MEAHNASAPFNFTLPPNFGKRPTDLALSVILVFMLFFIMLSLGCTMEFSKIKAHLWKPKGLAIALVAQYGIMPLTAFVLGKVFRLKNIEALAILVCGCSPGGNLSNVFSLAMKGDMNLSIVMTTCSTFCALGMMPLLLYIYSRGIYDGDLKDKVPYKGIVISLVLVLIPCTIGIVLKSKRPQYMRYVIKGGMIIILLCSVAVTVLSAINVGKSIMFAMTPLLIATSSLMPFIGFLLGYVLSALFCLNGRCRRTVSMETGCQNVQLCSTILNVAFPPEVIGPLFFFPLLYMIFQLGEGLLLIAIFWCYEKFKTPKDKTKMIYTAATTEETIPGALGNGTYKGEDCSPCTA
Assay: [3H]-TCA uptake assay (NTCP inhibition)
Type: cell-based
Summary of the method: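 Read-out is liquid scintillation counting of Triton X-100 lysates after 15 min, 37° C uptake of 1 μM [3H]-taurocholate in Na+ Ringer's buffer (145 mM Na). Beforehand, PTH and HepG2-NTCP cells had 24 h in PMM for NTCP induction and 2 h of compound or DMSO treatment.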

[1] = IC50, given as a range, marked * (asterisk not explained)
[2] = given as a range, assay not given
[3] = given as a range, marked * (asterisk not explained)

| Structure (SMILES) | IC50 [1] | IC50 [2] | also measured |
| --- | --- | --- | --- |
| CCC1NC(=O)C(C2OC(Oc3ccc(Cl)c(OCc4ccccc4)c3)CC2C)N(C)C(=O)C(C(C)C)N(C)C(=O)C(CC(C)C)N(C)C(=O)C(CC(C)C)N(C)C(=O)C(C)NC(=O)C(C)NC(=O)C(CC(C)C)N(C)C(=O)C(C(C)C)NC(=O)C(CC(C)C)N(C)C(=O)CN(C)C1=O (stereo not drawn) [Compound 44A-o] | 1000 to 100000 nM | – | – |
| CCC1NC(=O)C(C2OC(OCc3ccc(N4CCOCC4)cc3)CC2C)N(C)C(=O)C(C(C)C)N(C)C(=O)C(CC(C)C)N(C)C(=O)C(CC(C)C)N(C)C(=O)C(C)NC(=O)C(C)NC(=O)C(CC(C)C)N(C)C(=O)C(C(C)C)NC(=O)C(CC(C)C)N(C)C(=O)CN(C)C1=O [99A + B(1:1.1), [2-((2R,3R)-3-methyl-5-(4-morpholinobenzyloxy)tetrahydrofuran-2-yl)-2-(methylamino)acetic acid]^1-cyclosporin A] | – | 1 to 1000 nM | – |
| CCC1NC(=O)C(C2OC(SC(C)c3ccccc3)CC2C)N(C)C(=O)C(C(C)C)N(C)C(=O)C(CC(C)C)N(C)C(=O)C(CC(C)C)N(C)C(=O)C(C)NC(=O)C(C)NC(=O)C(CC(C)C)N(C)C(=O)C(C(C)C)NC(=O)C(CC(C)C)N(C)C(=O)CN(C)C1=O (stereo not drawn) [Compound 78A-s] | 1000 to 100000 nM | – | – |
| CCCOc1cc(OC2CC(C)C(C3C(=O)NC(CC)C(=O)N(C)CC(=O)N(C)C(CC(C)C)C(=O)NC(C(C)C)C(=O)N(C)C(CC(C)C)C(=O)NC(C)C(=O)NC(C)C(=O)N(C)C(CC(C)C)C(=O)N(C)C(CC(C)C)C(=O)N(C)C(C(C)C)C(=O)N3C)O2)ccc1Cl (stereo not drawn) [Compound 42A-o] | 1000 to 100000 nM | – | – |
| CCC1NC(=O)C(C2OC(OCc3cc(Cl)c(Cl)cc3Cl)CC2C)N(C)C(=O)C(C(C)C)N(C)C(=O)C(CC(C)C)N(C)C(=O)C(CC(C)C)N(C)C(=O)C(C)NC(=O)C(C)NC(=O)C(CC(C)C)N(C)C(=O)C(C(C)C)NC(=O)C(CC(C)C)N(C)C(=O)CN(C)C1=O (stereo not drawn) [Compound 104] | 1000 to 100000 nM | – | – |
| CCC1NC(=O)C(C2OC(Oc3cccc(OCc4cccc(F)c4)c3)CC2C)N(C)C(=O)C(C(C)C)N(C)C(=O)C(CC(C)C)N(C)C(=O)C(CC(C)C)N(C)C(=O)C(C)NC(=O)C(C)NC(=O)C(CC(C)C)N(C)C(=O)C(C(C)C)NC(=O)C(CC(C)C)N(C)C(=O)CN(C)C1=O (stereo not drawn) [Compound 20A-o] | 1000 to 100000 nM | – | – |
| CCC1NC(=O)C(C2OC(Sc3cc(OC)cc(OCc4ccccc4)c3)CC2C)N(C)C(=O)C(C(C)C)N(C)C(=O)C(CC(C)C)N(C)C(=O)C(CC(C)C)N(C)C(=O)C(C)NC(=O)C(C)NC(=O)C(CC(C)C)N(C)C(=O)C(C(C)C)NC(=O)C(CC(C)C)N(C)C(=O)CN(C)C1=O (stereo not drawn) [Compound 65] | – | – | IC50 [3]: 1000 to 100000 nM |
| CCC1NC(=O)C(C2OC(Oc3cccc(OC(C)C)c3)CC2C)N(C)C(=O)C(C(C)C)N(C)C(=O)C(CC(C)C)N(C)C(=O)C(CC(C)C)N(C)C(=O)C(C)NC(=O)C(C)NC(=O)C(CC(C)C)N(C)C(=O)C(C(C)C)NC(=O)C(CC(C)C)N(C)C(=O)CN(C)C1=O (stereo not drawn) [Compound 30A-6] | 1000 to 100000 nM | – | – |
| CCC1NC(=O)C(C2OC(Sc3ccc(OC)cc3)CC2C)N(C)C(=O)C(C(C)C)N(C)C(=O)C(CC(C)C)N(C)C(=O)C(CC(C)C)N(C)C(=O)C(C)NC(=O)C(C)NC(=O)C(CC(C)C)N(C)C(=O)C(C(C)C)NC(=O)C(CC(C)C)N(C)C(=O)CN(C)C1=O [Compound 26A, [2-((2R,3R)-5-(4-methoxyphenylthio)-3-methyltetrahydrofuran-2-yl)-2-(methylamino)acetic acid]^1-cyclosporin A] | – | 1 to 1000 nM | – |
| CCC1NC(=O)C(C2OC(Sc3cc(OC)cc(OCc4ccc(F)cc4)c3)CC2C)N(C)C(=O)C(C(C)C)N(C)C(=O)C(CC(C)C)N(C)C(=O)C(CC(C)C)N(C)C(=O)C(C)NC(=O)C(C)NC(=O)C(CC(C)C)N(C)C(=O)C(C(C)C)NC(=O)C(CC(C)C)N(C)C(=O)CN(C)C1=O [Compound 60A, [2-((2R,3R)-5-(3-(4-fluorobenzyloxy)-5-methoxyphenylthio)-3-methyltetrahydrofuran-2-yl)-2-(methylamino)acetic acid]^1-cyclosporin A] | – | 1 to 1000 nM | – |
| CC[C@@H]1NC(=O)[C@H]([C@@H]2OC(Sc3cccc(OCc4ccc(-n5cccn5)cc4)c3)C[C@H]2C)N(C)C(=O)[C@H](C(C)C)N(C)C(=O)[C@H](CC(C)C)N(C)C(=O)[C@H](CC(C)C)N(C)C(=O)[C@@H](C)NC(=O)[C@H](C)NC(=O)[C@H](CC(C)C)N(C)C(=O)[C@H](C(C)C)NC(=O)[C@H](CC(C)C)N(C)C(=O)CN(C)C1=O (stereo partly drawn) [Compound 17A, [2-((2R,3R)-5-(3-(4-(1H-pyrazol-1-yl)benzyloxy)phenylthio)-3-methyltetrahydrofuran-2-yl)-2-(methylamino)acetic acid]^1-cyclosporin A] | – | – | IC50 (given as a range, assay not given, read-out: IC50): 1 to 1000 nM |
| CCC1NC(=O)C(C2OC(Oc3cccc(OCCc4ccccc4)c3)CC2C)N(C)C(=O)C(C(C)C)N(C)C(=O)C(CC(C)C)N(C)C(=O)C(CC(C)C)N(C)C(=O)C(C)NC(=O)C(C)NC(=O)C(CC(C)C)N(C)C(=O)C(C(C)C)NC(=O)C(CC(C)C)N(C)C(=O)CN(C)C1=O (stereo not drawn) [Compound 35A-o] | 1000 to 100000 nM | – | – |
| CCC1NC(=O)C(C2OC(SCc3cccc(S(=O)(=O)NCC(C)C)c3)CC2C)N(C)C(=O)C(C(C)C)N(C)C(=O)C(CC(C)C)N(C)C(=O)C(CC(C)C)N(C)C(=O)C(C)NC(=O)C(C)NC(=O)C(CC(C)C)N(C)C(=O)C(C(C)C)NC(=O)C(CC(C)C)N(C)C(=O)CN(C)C1=O (stereo not drawn) [Compound 76A-s] | 1000 to 100000 nM | – | – |
| CCC1NC(=O)C(C2OC(SCc3ccc(OC)cc3)CC2C)N(C)C(=O)C(C(C)C)N(C)C(=O)C(CC(C)C)N(C)C(=O)C(CC(C)C)N(C)C(=O)C(C)NC(=O)C(C)NC(=O)C(CC(C)C)N(C)C(=O)C(C(C)C)NC(=O)C(CC(C)C)N(C)C(=O)CN(C)C1=O (stereo not drawn) [Compound 83A-s] | 1000 to 100000 nM | – | – |
| CCC1NC(=O)C(C2OC(Sc3cccc(OCc4ccc(F)cc4)c3)CC2C)N(C)C(=O)C(C(C)C)N(C)C(=O)C(CC(C)C)N(C)C(=O)C(CC(C)C)N(C)C(=O)C(C)NC(=O)C(C)NC(=O)C(CC(C)C)N(C)C(=O)C(C(C)C)NC(=O)C(CC(C)C)N(C)C(=O)CN(C)C1=O [Compound 21A, [2-((2R,3R)-5-(3-(4-fluorobenzyloxy)phenylthio)-3-methyltetrahydrofuran-2-yl)-2-(methylamino)acetic acid]^1-cyclosporin A] | – | 1 to 1000 nM | – |
| CCC1NC(=O)C(C2OC(Sc3cccc(NC)c3)CC2C)N(C)C(=O)C(C(C)C)N(C)C(=O)C(CC(C)C)N(C)C(=O)C(CC(C)C)N(C)C(=O)C(C)NC(=O)C(C)NC(=O)C(CC(C)C)N(C)C(=O)C(C(C)C)NC(=O)C(CC(C)C)N(C)C(=O)CN(C)C1=O [Compound 47A, [2-((2R,3R)-3-methyl-5-(3-(methylamino)phenylthio)tetrahydrofuran-2-yl)-2-(methylamino)acetic acid]^1-cyclosporin A] | – | 1 to 1000 nM | – |
| CCC1NC(=O)C(C2OC(SCc3cccc(OCC4CCOCC4)c3)CC2C)N(C)C(=O)C(C(C)C)N(C)C(=O)C(CC(C)C)N(C)C(=O)C(CC(C)C)N(C)C(=O)C(C)NC(=O)C(C)NC(=O)C(CC(C)C)N(C)C(=O)C(C(C)C)NC(=O)C(CC(C)C)N(C)C(=O)CN(C)C1=O (stereo not drawn) [Compound 105-s] | 1000 to 100000 nM | – | – |
| CCC1NC(=O)C(C2OC(SC(c3ccccc3)c3ccccc3)CC2C)N(C)C(=O)C(C(C)C)N(C)C(=O)C(CC(C)C)N(C)C(=O)C(CC(C)C)N(C)C(=O)C(C)NC(=O)C(C)NC(=O)C(CC(C)C)N(C)C(=O)C(C(C)C)NC(=O)C(CC(C)C)N(C)C(=O)CN(C)C1=O (stereo not drawn) [Compound 80A-s] | 1000 to 100000 nM | – | – |
| CCC1NC(=O)C(C2OC(OC(C)c3ccccc3)CC2C)N(C)C(=O)C(C(C)C)N(C)C(=O)C(CC(C)C)N(C)C(=O)C(CC(C)C)N(C)C(=O)C(C)NC(=O)C(C)NC(=O)C(CC(C)C)N(C)C(=O)C(C(C)C)NC(=O)C(CC(C)C)N(C)C(=O)CN(C)C1=O (single isomer, unassigned) [Compound 78B] | – | 1 to 1000 nM | – |
| CCC1NC(=O)C(C2OC(Oc3cccc(OC(C)c4ccccc4)c3)CC2C)N(C)C(=O)C(C(C)C)N(C)C(=O)C(CC(C)C)N(C)C(=O)C(CC(C)C)N(C)C(=O)C(C)NC(=O)C(C)NC(=O)C(CC(C)C)N(C)C(=O)C(C(C)C)NC(=O)C(CC(C)C)N(C)C(=O)CN(C)C1=O (stereo not drawn) [Compound 34A-o] | 1000 to 100000 nM | – | – |
| CCC1NC(=O)C(C2OC(Sc3ccc(N4CCN(C)CC4)cc3)CC2C)N(C)C(=O)C(C(C)C)N(C)C(=O)C(CC(C)C)N(C)C(=O)C(CC(C)C)N(C)C(=O)C(C)NC(=O)C(C)NC(=O)C(CC(C)C)N(C)C(=O)C(C(C)C)NC(=O)C(CC(C)C)N(C)C(=O)CN(C)C1=O [Compound 6A, [2-((2R,3R)-3-methyl-5-(4-(4-methylpiperazin-1-yl)phenylthio)tetrahydrofuran-2-yl)-2-(methylamino)acetic acid]^1-cyclosporin A] | – | 1 to 1000 nM | – |
| CCC1NC(=O)C(C2OC(OCc3cc(F)c(Cl)cc3Cl)CC2C)N(C)C(=O)C(C(C)C)N(C)C(=O)C(CC(C)C)N(C)C(=O)C(CC(C)C)N(C)C(=O)C(C)NC(=O)C(C)NC(=O)C(CC(C)C)N(C)C(=O)C(C(C)C)NC(=O)C(CC(C)C)N(C)C(=O)CN(C)C1=O (single isomer, unassigned) [Compound 101B] | – | 1 to 1000 nM | – |
| CCC1NC(=O)C(C2OC(Oc3ccc(OC)c(OCc4ccccc4)c3)CC2C)N(C)C(=O)C(C(C)C)N(C)C(=O)C(CC(C)C)N(C)C(=O)C(CC(C)C)N(C)C(=O)C(C)NC(=O)C(C)NC(=O)C(CC(C)C)N(C)C(=O)C(C(C)C)NC(=O)C(CC(C)C)N(C)C(=O)CN(C)C1=O (stereo not drawn) [Compound 64-o] | – | – | IC50 [3]: 1000 to 100000 nM |
| CCC1NC(=O)C(C2OC(Oc3ccc(Cl)c(OCCO)c3)CC2C)N(C)C(=O)C(C(C)C)N(C)C(=O)C(CC(C)C)N(C)C(=O)C(CC(C)C)N(C)C(=O)C(C)NC(=O)C(C)NC(=O)C(CC(C)C)N(C)C(=O)C(C(C)C)NC(=O)C(CC(C)C)N(C)C(=O)CN(C)C1=O (stereo not drawn) [Compound 46A-o] | 1000 to 100000 nM | – | – |
